Earlier results, collected in patent publication US9457059B2, “Compositions and methods for treating renal failure” (La Jolla Pharmaceutical Company, priority 2013, dated 2016).

Legend:
[1] = test system: patients with cirrhosis and ascites
[2] = test system: patients with cirrhosis and ascites; remark: listed apart in the source

Molecule: C[C@H](CS)C(=O)N1CCC[C@H]1C(=O)O [captopril]
- sodium excretion and urinary output [1]: significantly reduced both sodium excretion and urinary output

Molecule: Asp-Arg-Val-Tyr-Ile-His-Pro-Phe (DRVYIHPF) [angiotensin II, peptide hormone that regulates blood pressure via vasoconstriction and sodium reabsorption]
- tolerability ([2]; use in patients with cirrhosis and ascites): well-tolerated

Molecule: Asp-Arg-Val-Tyr-Ile-His-Pro-Phe [angiotensin II, peptide hormone that regulates blood pressure via vasoconstriction and sodium reabsorption]
- increase in urine output and sodium excretion compared with norepinephrine ([2]; Laragh et al., versus norepinephrine): much more pronounced than those produced by norepinephrine
- natriuresis and urine output ([2]; patients with cirrhosis and ascites, no renal failure): induces marked natriuresis and urine output
- increase in sodium excretion compared with norepinephrine ([2]; second study, Ames et al., versus norepinephrine): greater increase in sodium excretion compared to norepinephrine
